SMILES strings stand for the structures. “Also recorded” adds a separate entry of the source.

The record followed here is patent US20240400606A1, “SMALL MOLECULE ACTIVATORS OF THE IMMUNE SYSTEM” (THE BOARD OF TRUSTEES OF THE UNIVERSITY OF ILLINOIS, priority 2021, published 2024).

In one series the target is SULT2B1b (Homo sapiens (Human), UniProt O00204). The experiment in a line: Coupled chromogenic SULT2B1b inhibition assay. In kind it is biochemical. Particulars: for IC50: coupled chromogenic in vitro assay, optimized conditions, mean±s.e.m., n=3. As to the method:
Optimized Coupled Chromogenic SULT2B1b Activity Assay. For 96-well Format: Working concentrations of IMPAD1 (0.1 mg/mL in 1× activity assay buffer), PAPS (1 mM in 1× activity assay buffer), and DHEA (2.5 mM in DMSO) were prepared. Two technical replicates were assayed for each sample. Reaction mixes were prepared by mixing 10 μL PAPS stock solution, 10 μL IMPAD1 stock solution, 4 μL 2.5 mM DHEA or DMSO, and 16 μL activity assay buffer to make […] reaction mix. Amount of reaction mix was scaled accordingly to number of samples assayed. 25 μL of reaction mix was dispensed to each well. SULT2B1b was diluted to 1.5 μg/μL in protein storage buffer then down to 0.8 μg/μL in 1X activity assay buffer. 25 μL of 0.8 μg/μL SULT2B1b was added to each well. The reaction was incubated at 37° C. for 45 minutes, then quenched by addition of 30 μL of malachite green solution A, followed by addition of 30 μL of malachite green solution B. The plate was left at room temperature for 20 minutes for color stabilization, then absorbance was read at 620 nm. IMPAD1 activity control was 10 μL of 0.1 mg/mL IMPAD1 mixed with 40 μL activity assay buffer. 25 μL of the IMPAD1 dilution was added to 25 μL of 0.1 mM PAP.
Coupled Chromogenic SULT2B1b Inhibition Assay. For 96-well Format: Working stock solutions of IMPAD1 (0.1 mg/mL in 1× activity assay buffer), PAPS (1 mM in 1X activity assay buffer), compound of interest (5 mM in DMSO) and DHEA (5 mM in DMSO) were prepared. Two technical replicates were assayed for each sample. […] The reaction was incubated at 37° C. for 45 minutes, then quenched by addition of 30 μL of malachite green solution A, followed by addition of 30 μL of malachite green solution B. The plate was left at room temperature for 20 minutes for color stabilization, then absorbance was read at 620 nm. […]
Percent inhibition was calculated as: 100−[100×[(Phosphate produced per wellaverage,compound of interest−Phosphate produced per wellaverage, DMSO)/(Phosphate produced per wellaverage, DHEA−Phosphate produced per wellaverage, DMSO)]]. […]

Series [1] has as its target human carbonic anhydrase II (hCAII) (Homo sapiens (Human), UniProt P00918). The series is described as follows: Human carbonic anhydrase II assay. In kind it is biochemical. To be noted: concentrations up to 200 μM; listed as IB:10:D. As to the method: Human Carbonic Anhydrase II Assay. Stock solutions of compound of interest (in DMSO), acetazolamide (10 μM in DMSO), hCAII solution (65 μL of 33 μM stock to 1.935 mL hCAII assay buffer to make 1 μM hCAII solution), and 4-nitrophenylacetate (4-NPA; 60 μL of 100 mM DMSO stock to 3 mL hCAII assay buffer to make 2 mM 4-NPA solution). To the wells of a 384-well clear bottom plate were added 1 μL compound of interest or 10 μM acetazolamide. 20 μL of hCAII solution was added to all wells except no enzyme control well, in which case 20 μL hCAII assay buffer was added instead. Plates were incubated for 11 minutes at room temperature before addition of 4-NPA solution to all wells. Absorbance at 348 nm was read every 10 seconds of 11 minute total run time. Three technical replicates were assessed per plate. Controls: hCAII+4-NPA (DMSO added in place of compound of interest, DMSO control), 4-NPA background (no enzyme, DMSO added in place of compound of interest, 4-NPA control), hCAII+4-NPA+acetazolamide (acetazolamide added in place of compound of interest, known hCAII inhibitor).
Percent inhibition calculated as: 100−[100×[(AbSaverage, compound of interest−AbSaverage, 4-NPA)/(AbSaverage, DMSO−AbSaverage, 4-NPA)]].

In another series the test system is T47D cells. The series is described as follows: Alamar blue cellular cytotoxicity, T47D. In kind it is cell-based. To be noted: 72 hours. As to the method:
Alamar Blue Fluorescence for Cellular Activity (IC50). Cells were seeded per well in a 96-well plate (5000 for MCF-7, 4000 for T47D, 7000 for mouse embryonic fibroblasts) and allowed to adhere before DMSO solutions of compounds were added to each well. Final concentration of DMSO in each well is 1%, final volume: 100 μL. At the end of 72 hours, Alamar Blue solution was added (10 μL of 1 mg resazurin per 10 mL PBS). After 2-4 hours incubation, fluorescence (λexcit.=555 nm, λemission.=585 nm) was measured. The fluorescence of each well was read with a SpectraMax M3 plate reader (Molecular Devices). Percent dead was determined by comparison to a 100% dead control: 100 μM Raptinal treated cells.
(In general: Resazurin is reduced to fluorescent resorufin, in cell work by metabolically active cells.)

Sequence of SULT2B1b (O00204 whole entry): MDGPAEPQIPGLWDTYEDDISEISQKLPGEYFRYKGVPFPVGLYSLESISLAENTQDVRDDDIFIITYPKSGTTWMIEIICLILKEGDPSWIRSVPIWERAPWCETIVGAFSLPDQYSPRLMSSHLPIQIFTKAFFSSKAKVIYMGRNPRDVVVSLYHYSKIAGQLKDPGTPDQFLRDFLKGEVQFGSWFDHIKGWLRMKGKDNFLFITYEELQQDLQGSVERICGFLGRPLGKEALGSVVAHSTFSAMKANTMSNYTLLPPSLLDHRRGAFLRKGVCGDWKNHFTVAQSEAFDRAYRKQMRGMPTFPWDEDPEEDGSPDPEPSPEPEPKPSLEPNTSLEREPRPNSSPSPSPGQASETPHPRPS

As to `C[C@]12CCC(=O)N(Cc3ccc(Cl)cc3)C1=CC[C@@H]1[C@@H]2C(=O)C[C@]2(C)C(=O)CC[C@@H]12` [Compound 1, (4aR,4bS,6aS,9aS,9bS)-1-(4-chlorobenzyl)-4a,6a-dimethyl-3,4,4a,6,6a,8,9,9a,9b,10-decahydro-1H-indeno[5,4-f]quinoline-2,5,7(4bH)-trione], it took 34 ± 4 µM to reach half-maximal inhibition against SULT2B1b (IC50). The compound further came in with a percent inhibition at SULT2B1b (initial medium throughput screen) of 48%. Further, the “inhibition of hCAII” value in series [1] is on record as “does not inhibit; also recorded: No inhibition”. Moreover, in the series on T47D cells, the “suitable sub-lethal treatment concentration” value was 6.25 µM.

On to `C[C@]12CC[C@H](O)CC1=CC[C@@H]1[C@@H]2CC[C@]2(C)C(n3cnc4ccccc43)=CC[C@@H]12` [Compound 2, Galeterone, reference compound], for which half-maximal inhibition at SULT2B1b (IC50) was put at 41 ± 7 µM.

As for `C[C@]12CCC(=O)N(Cc3ccc(Br)cc3)C1=CC[C@@H]1[C@@H]2C(=O)C[C@]2(C)C(=O)CC[C@@H]12` [Compound 3, (4aR,4bS,6aS,9aS,9bS)-1-(4-bromobenzyl)-4a,6a-dimethyl-3,4,4a,6,6a,8,9,9a,9b,10-decahydro-1H-indeno[5,4-f]quinoline-2,5,7(4bH)-trione], the “suitable sub-lethal treatment concentration” value with T47D cells was found to be 6.25 µM.

The IC50 is the concentration that inhibits the measured activity by half. Lower therefore signals greater potency.
